For 15 compounds, Papp A→B and efflux ratio results are on record in patent US20250019385A1, “SPIROCYCLIC ANNULATED 2-AMINO-3-CYANO THIOPHENES AND DERIVATIVES FOR THE TREATMENT OF CANCER” (Boehringer Ingelheim International GmbH, priority 2023, published 2025).

The first series can be described thus: Caco-2 assay (permeability and efflux ratio). Type of series: in vitro ADME. The following applies: human, Caco-2 apical to basolateral permeability, pH 7.4, read-out: Caco PappAB. Here is the method: The assay provides information on the potential of a compound to pass the cell membrane, on the extent of oral absorption as well as on whether the compound is actively transported by uptake and/or efflux transporters. Permeability measurements across polarized, confluent Caco-2 cell monolayers grown on permeable filter supports (Corning, catalog #3391) are used. 10 μM test compound solution in assay buffer (128.13 mM NaCl, 5.36 mM KCl, 1 mM MgSO4, 1.8 mM CaCl2), 4.17 mM NaHCO3, 1.19 mM Na2HPO4, 0.41 mM NaH2PO4, 15 mM 2-[4-(2-hydroxyethyl)piperazin-1-yl]ethanesulfonic acid (HEPES), 20 mM glucose, pH 7.4) was added to the donor compartment of the cell chamber containing a monolayer of Caco-2 cells in between the donor and the receiver compartment. The receiver and donor compartments contain 0.25% bovine serum albumine (BSA) in assay buffer. Passive diffusion and/or active transport of compounds across the monolayer is measured in both apical to basolateral (a-b) and basolateral to apical (b-a) direction. a-b permeability (PappAB) represents drug absorption from the intestine into the blood and b-a permeability (PappBA) drug secretion from the blood back into the intestine via both passive permeability as well as active transport mechanisms mediated by efflux and uptake transporters that are expressed on the Caco-2 cells. After a pre-incubation of 25-30 min at 37° C., at predefined time points (0, 30, 60 and 90 min), samples were taken from the receiver and donor compartment, respectively. Concentrations of test compounds in samples were measured by HPLC/MS/MS, samples from the donor compartment were diluted 1:50 (v:v) with assay buffer, samples from receiver compartment were measured without dilution.
Apparent permeabilities in a-b (PappAB) and b-a (PappBA) directions are calculated according to the formula:
[formula] • Vrec [mL]: buffer volume in receiver compartment • Cdon [μmol/mL]: concentration of test compound in donor compartment at t=0 • ΔCrec: difference between concentrations of test compound in receiver compartment at start and end of incubation time • Δt: Incubation time • Vrec·ΔCrec/Δt [μmol/min]: Amount of compound transferred to receiver compartment per time • A [cm^2]: filter surface
Caco-2 efflux ratios (ER) are calculated as the ratio of PappBA/PappAB.
Background: Caco-2 cells form a polarised layer with tight junctions and transporters.
Take `CO[C@@H]1C[C@@H]([C@H](C)Oc2nc(-c3noc4c3CCC[C@@]43CCCc4sc(N)c(C#N)c43)nc3c2CN(C2COC2)C[C@]32CCOC2)N(C)C1` [II-14]: the Papp A→B at 90 min, 10 μM was 3.2 ×10⁻⁶ cm/s.
For `CO[C@@H]1C[C@@H]([C@H](C)Oc2nc(-c3noc4c3CCC[C@@]43CCCc4sc(N)c(C#N)c43)nc3c2COC[C@]32CCOC2)N(C)C1` [II-11], the Papp A→B at 90 min, 10 μM is 27 ×10⁻⁶ cm/s.
Turning to `C[C@@H]1COC[C@H](n2c(=O)n(C)c3c(O[C@@H](C)[C@@H]4CCCN4C)nc(-c4onc5c4CCC[C@@]54CCCc5sc(N)c(C#N)c54)nc32)C1` [I-44], the Papp A→B at 90 min, 10 μM was found to be 14 ×10⁻⁶ cm/s.
Regarding `C[C@H](Oc1nc(-c2onc3c2CCC[C@@]32CCCc3sc(N)c(C#N)c32)nc2c1n(C)c(=O)n2[C@@]12COC[C@@H]1C2)[C@@H]1CC[C@H](C)N1C` [I-45], the Papp A→B at 90 min, 10 μM was found to be 43 ×10⁻⁶ cm/s.
For `CO[C@H]1CCN(C)[C@@H]1[C@H](C)Oc1nc(-c2onc3c2CCC[C@@]32CCCc3sc(N)c(C#N)c32)nc2c1n(C)c(=O)n2[C@H]1COC[C@@H](C)C1` [I-51], the Papp A→B at 90 min, 10 μM was found to be 36 ×10⁻⁶ cm/s.
Still for that read-out and setting: the same measure for `C[C@H](Oc1nc(-c2onc3c2CCC[C@@]32CCCc3sc(N)c(C#N)c32)nc2c1CN(C1COC1)C[C@]21CCOC1)[C@@H]1CCCN1C` [I-56]: 8.4 ×10⁻⁶ cm/s; for `CO[C@H]1CCN(C)[C@@H]1[C@H](C)Oc1nc(-c2onc3c2CCC[C@@]32CCCc3sc(N)c(C#N)c32)nc2c1CN(C1COC1)C[C@]21CCOC1` [I-57]: 35 ×10⁻⁶ cm/s; for `C[C@H](Oc1nc(-c2noc3c2CCC[C@@]32CCCc3sc(N)c(C#N)c32)nc2c1CN(C1COC1)C[C@]21CCOC1)[C@@H]1CCCN1C` [II-12]: 2.9 ×10⁻⁶ cm/s.
As for `CO[C@@H]1C[C@@H]([C@H](C)Oc2nc(-c3onc4c3CCC[C@@]43CCCc4sc(N)c(C#N)c43)nc3c2n(C)c(=O)n3[C@H]2COC[C@@H](C)C2)N(C)C1` [I-52], the Papp A→B at 90 min, 10 μM is 34 ×10⁻⁶ cm/s.
With `C[C@H](Oc1nc(-c2onc3c2CCC[C@@]32CCCc3sc(N)c(C#N)c32)nc2c1CN(C1COC1)C[C@]21CCOC1)[C@@H]1CC[C@H](C)N1C` [I-55], the Papp A→B at 90 min, 10 μM stood at 24 ×10⁻⁶ cm/s.
For `CO[C@H]1CCN(C)[C@@H]1[C@H](C)Oc1nc(-c2noc3c2CCC[C@@]32CCCc3sc(N)c(C#N)c32)nc2c1CN(C1COC1)C[C@]21CCOC1` [II-13], the Papp A→B at 90 min, 10 μM worked out at 18 ×10⁻⁶ cm/s.
With `C[C@H](Oc1nc(-c2noc3c2CCC[C@@]32CCCc3sc(N)c(C#N)c32)nc2c1CN(C1COC1)C[C@]21CCOC1)[C@@H]1CC[C@H](C)N1C` [II-17], the Papp A→B at 90 min, 10 μM came to 16 ×10⁻⁶ cm/s.
Consider `C[C@H](Oc1nc(-c2noc3c2CCC[C@@]32SCCc3sc(N)c(C#N)c32)nc2c1COC[C@]21CCOC1)[C@@H]1CCCN1C` [II-16], for which the Papp A→B at 90 min, 10 μM was determined as 12 ×10⁻⁶ cm/s.
Turning to `CO[C@@H]1C[C@@H]([C@H](C)Oc2nc(-c3onc4c3CCC[C@@]43CCCc4sc(N)c(C#N)c43)nc3c2n(C)c(=O)n3[C@@]23COC[C@@H]2C3)N(C)C1` [I-46], the Papp A→B at 90 min, 10 μM was found to be 21 ×10⁻⁶ cm/s.
With `CO[C@@H]1C[C@@H]([C@H](C)Oc2nc(-c3noc4c3CCC[C@@]43CCCc4sc(N)c(C#N)c43)nc3c2n(C)c(=O)n3[C@@]23COC[C@@H]2C3)N(C)C1` [II-6], the Papp A→B at 90 min, 10 μM stood at 13 ×10⁻⁶ cm/s.

The series is the same for the next values; noted with them: human, pH 7.4, Caco-2 efflux ratio PappBA/PappAB, read-out: Caco ER.
In the case of `CO[C@@H]1C[C@@H]([C@H](C)Oc2nc(-c3noc4c3CCC[C@@]43CCCc4sc(N)c(C#N)c43)nc3c2CN(C2COC2)C[C@]32CCOC2)N(C)C1` [II-14], the efflux ratio at 90 min, 10 μM is 15.3.
Same read-out and setting: then `CO[C@@H]1C[C@@H]([C@H](C)Oc2nc(-c3noc4c3CCC[C@@]43CCCc4sc(N)c(C#N)c43)nc3c2COC[C@]32CCOC2)N(C)C1` [II-11], with 0.9.
Turning to `C[C@@H]1COC[C@H](n2c(=O)n(C)c3c(O[C@@H](C)[C@@H]4CCCN4C)nc(-c4onc5c4CCC[C@@]54CCCc5sc(N)c(C#N)c54)nc32)C1` [I-44], the efflux ratio at 90 min, 10 μM is 2.5.
`C[C@H](Oc1nc(-c2onc3c2CCC[C@@]32CCCc3sc(N)c(C#N)c32)nc2c1n(C)c(=O)n2[C@@]12COC[C@@H]1C2)[C@@H]1CC[C@H](C)N1C` [I-45]: the efflux ratio at 90 min, 10 μM came out at 0.6.
Take `CO[C@H]1CCN(C)[C@@H]1[C@H](C)Oc1nc(-c2onc3c2CCC[C@@]32CCCc3sc(N)c(C#N)c32)nc2c1n(C)c(=O)n2[C@H]1COC[C@@H](C)C1` [I-51]: the efflux ratio at 90 min, 10 μM came out at 0.5.
Turning to `C[C@H](Oc1nc(-c2onc3c2CCC[C@@]32CCCc3sc(N)c(C#N)c32)nc2c1CN(C1COC1)C[C@]21CCOC1)[C@@H]1CCCN1C` [I-56], the efflux ratio at 90 min, 10 μM is 7.1.
Still for that read-out and setting: the same measure for `CO[C@H]1CCN(C)[C@@H]1[C@H](C)Oc1nc(-c2onc3c2CCC[C@@]32CCCc3sc(N)c(C#N)c32)nc2c1CN(C1COC1)C[C@]21CCOC1` [I-57]: 1.3.
For the compound `C[C@H](Oc1nc(-c2noc3c2CCC[C@@]32CCCc3sc(N)c(C#N)c32)nc2c1CN(C1COC1)C[C@]21CCOC1)[C@@H]1CCCN1C` [II-12], the efflux ratio at 90 min, 10 μM is 21.6.
Same read-out and setting: the same measure for `CO[C@@H]1C[C@@H]([C@H](C)Oc2nc(-c3onc4c3CCC[C@@]43CCCc4sc(N)c(C#N)c43)nc3c2n(C)c(=O)n3[C@H]2COC[C@@H](C)C2)N(C)C1` [I-52]: 0.6; for `C[C@H](Oc1nc(-c2onc3c2CCC[C@@]32CCCc3sc(N)c(C#N)c32)nc2c1CN(C1COC1)C[C@]21CCOC1)[C@@H]1CC[C@H](C)N1C` [I-55]: 2.3; for `CO[C@H]1CCN(C)[C@@H]1[C@H](C)Oc1nc(-c2noc3c2CCC[C@@]32CCCc3sc(N)c(C#N)c32)nc2c1CN(C1COC1)C[C@]21CCOC1` [II-13]: 2.9.
Regarding `C[C@H](Oc1nc(-c2noc3c2CCC[C@@]32CCCc3sc(N)c(C#N)c32)nc2c1CN(C1COC1)C[C@]21CCOC1)[C@@H]1CC[C@H](C)N1C` [II-17], the efflux ratio at 90 min, 10 μM is 3.4.
Consider `C[C@H](Oc1nc(-c2noc3c2CCC[C@@]32SCCc3sc(N)c(C#N)c32)nc2c1COC[C@]21CCOC1)[C@@H]1CCCN1C` [II-16], for which the efflux ratio at 90 min, 10 μM turned out to be 3.8.
With `CO[C@@H]1C[C@@H]([C@H](C)Oc2nc(-c3onc4c3CCC[C@@]43CCCc4sc(N)c(C#N)c43)nc3c2n(C)c(=O)n3[C@@]23COC[C@@H]2C3)N(C)C1` [I-46], the efflux ratio at 90 min, 10 μM worked out at 1.8.
`CO[C@@H]1C[C@@H]([C@H](C)Oc2nc(-c3noc4c3CCC[C@@]43CCCc4sc(N)c(C#N)c43)nc3c2n(C)c(=O)n3[C@@]23COC[C@@H]2C3)N(C)C1` [II-6]: the efflux ratio at 90 min, 10 μM is 4.3.
